“Also recorded” adds a separate entry of the source.
Assays:
p*-mTOR = assay: Retinal explant culture, p*-mTOR staining; format: cell-based, mice; settings: wild type retinal explants, 4 hours culture, media with or without glucose
Procedure: Retinal explant cultures: The retina was dissected free from other ocular tissues in DMEM, and then incubated in conditions according to the chart in FIG. 10a. Regular DMEM was at 4.5 g/L glucose, low glucose was at 1 g/L, leucine was added at 200 μM and FCS at 10%. Incubation was performed for 4 h and the retinae were fixed and processed for antibody staining as described below.
Whole mount and section antibody staining were performed as previously (Punzo, C. & Cepko, C. L. (2008) Dev Dyn 237, 1034-42) described with the following modifications. Antibody staining for LAMP-2: Triton was replaced with 0.01% Saponin. Antibody staining for p*-mTOR and p*-S6: PBS was replaced by TBS in every step of the procedure. […] Time points analyzed for the rod and cone death kinetics (P: postnatal day; PW: postnatal week): PDE-β−/−: P10-P20 daily, PW3-10 weekly, PW 12, PW15, PW18, PW45; PDE-γ-KO: P10-P20 daily, PW3-PW10 weekly, PW15, PW25, PW45; Rho-KO: PW4-PW8 weekly, PW10, PW11, PW17, PW20, PW25, PW27, PW31, PW34, PW37, PW45, PW55, PW80; P23H: PW5, PW10, PW16, PW25, PW30, PW35, PW40, PW65, PW70, PW75, PW80, PW85.

cones [1] = assay: AAV2/5 gluconeogenesis vector tested in vivo in the rd1 mutant mouse, cone survival and morphology
HEK 293 cells = assay: Expression of Fbp-1, Pck-1 and Pcx from the AAV vector (PCR, Western blot in HEK 293 cells); format: cell-based
Procedure: FIGS. 22A and B depict the mRNA expression and protein expression of gluconeogenesis genes. […] Gapdh is used as a loading control and water is used as a negative control.
Two ways were used to supply cells with more glucose. One was to increase intracellular glucose levels by providing cones with the means to synthesize their own glucose. Glucose synthesis, called gluconeogenesis, is carried out primarily in the liver, and to a limited extent in kidney and muscle. One might consider that the enzymes required for glucose synthesis could be those that break down glucose, during the process of glycolysis. However, some of the steps in glycolysis are energy producing and thus to reverse them requires a different process. Three enzymes must be supplied to allow the glucose to be synthesized, utilizing pyruvate or lactate as a starting point, and utilizing ATP and GTP to go uphill energetically in the synthesis. The first energy requiring step is catalyzed by Pcx (Pcx: Pyruvate Carboxylase) and utilizes ATP. A subsequent energy requiring step is catalyzed by Pck1: Phosphoenolpyruvate carboxykinase) and requires GTP. […] The endogenous expression of Fbp1, PCk1, and Pcx and the expression Fbp1, PCk1, and Pcx in the AAV vector (“construct”) was analyzed by PCR analysis (FIG. 22A) and Western blot analysis (FIG. 22B).

[2] = Behavioral assays (open field and step tests) in rd1 mutant mice; format: in vivo, mouse; settings: infected rd1 animals
Source text: FIG. 23 is a graph depicting the open field and step tests performed on the rd1 mutant mice in which the AAV vector was introduced.
This observation also confirms that outer segment shortening was due to insufficient glucose.

HIF-1α = assay: Immunofluorescent staining for HIF-1α in cones of PDE-β−/− mice; format: in vivo; settings: PDE-β−/− mice treated for 4 weeks with insulin
Procedure: Rapamycin, Streptozotocin and Insulin treatments were performed as follows. Rapamycin was diluted to 10 mg/ml in ethanol. The stock was diluted to 0.015 mg/ml in drinking water over a period of 2 weeks. A single intraperitoneal injection of 150 μl (12 mg/ml in 0.1M citric acid, ph4.5) of Streptozotocin was injected at postnatal day (P) 21. Insulin was injected intraperitoneally daily starting at P21. The concentration was increased weekly such that the first week, 10 U/kg body weight, the second 15 U/kg, the third 20 U/kg and fourth 30 U/kg body weight, were injected. In the treatment that lasted 7 weeks 30 U/kg body weight were injected for the remaining 3 weeks. Blood glucose levels were measured by collecting a drop of blood from the tail directly onto a test strip from TrueTrack smart system (CVS pharmacy). […]
Whole mount and section antibody staining were performed as previously (Punzo, C. & Cepko, C. L. (2008) Dev Dyn 237, 1034-42) described with the following modifications. […] Time points analyzed for the rod and cone death kinetics (P: postnatal day; PW: postnatal week): PDE-β−/−: P10-P20 daily, PW3-10 weekly, PW 12, PW15, PW18, PW45; PDE-γ-KO: P10-P20 daily, PW3-PW10 weekly, PW15, PW25, PW45; Rho-KO: PW4-PW8 weekly, PW10, PW11, PW17, PW20, PW25, PW27, PW31, PW34, PW37, PW45, PW55, PW80; P23H: PW5, PW10, PW16, PW25, PW30, PW35, PW40, PW65, PW70, PW75, PW80, PW85.

cones [3] = assay: Quantification of cone survival in PDE-β−/− mice (cone-lacZ staining of retinal flat mounts); format: in vivo; settings: for cone survival after 4 weeks of treatment: PW7, insulin daily i.p. from P21, streptozotocin single i.p. injection at P21, vs uninjected control; for cone survival after 7 weeks of treatment: PW10, treatment from PW3, vs untreated
Procedure: Rapamycin, Streptozotocin and Insulin treatments were performed as follows. Rapamycin was diluted to 10 mg/ml in ethanol. The stock was diluted to 0.015 mg/ml in drinking water over a period of 2 weeks. A single intraperitoneal injection of 150 μl (12 mg/ml in 0.1M citric acid, ph4.5) of Streptozotocin was injected at postnatal day (P) 21. Insulin was injected intraperitoneally daily starting at P21. The concentration was increased weekly such that the first week, 10 U/kg body weight, the second 15 U/kg, the third 20 U/kg and fourth 30 U/kg body weight, were injected. In the treatment that lasted 7 weeks 30 U/kg body weight were injected for the remaining 3 weeks. Blood glucose levels were measured by collecting a drop of blood from the tail directly onto a test strip from TrueTrack smart system (CVS pharmacy). Eye bleeds were avoided due to the fact that cell survival in the retina was being assayed.
Quantification of cone survival was performed as follows. The colors of the bright light image were inverted and processed with Imaris software (Bitplane Inc) to calculate the percentage of blue surface area versus the total retinal surface area (see also FIG. 17). A minimum of 8 retinae per treatment, and for the control, were analyzed. P-values were calculated by the student's t-test.

photoreceptor = settings: cited from earlier work

Question: Which “dorsal p*-mTOR in cones” value (p*-mTOR) does the source give for O=C[C@H](O)[C@@H](O)[C@H](O)[C@H](O)CO [glucose] here?
Answer: abolished in the absence of glucose; also recorded: only detected when glucose was present

Question: For “CMV promotor-Pcx-IRES-Fbp1-IRES-Pck1: AAV 2/5 virus carrying Pcx, Fbp1 and Pck1 on one transcript under the CMV promoter with IRES elements”, which “morphology of the cone outer segments” value (cones [1]) is on record?
Answer: remarkably similar to that of normal cones

Question: And the cone survival (cones [1]; relative to controls)?
Answer: additional cone survival relative to controls

Question: What about the “mRNA expression of Fbp-1, Pck-1 and Pcx” value (HEK 293 cells; PCR analysis, Gapdh loading control) of the same molecule?
Answer: expresses these genes

Question: And the “protein expression of Fbp-1, Pck-1 and Pcx” value (HEK 293 cells; Western blot, transfected HEK 293 cells vs retina and HEK 293 control samples)?
Answer: upregulated

Question: What about the “vision in two behavioral assays” value [2] of the same molecule?
Answer: functional vision

Question: For insulin, which “upregulation of HIF-1α in cones” value (HIF-1α) is on record?
Answer: did not show the upregulation of HIF-1α; also recorded: prevented the upregulation of HIF-1α

Question: What about the “cone survival after 4 weeks of treatment” value (cones [3]) of the same molecule?
Answer: improved cone survival; also recorded: prolonged cone survival

Question: What about the “cone survival after 7 weeks of treatment” value (cones [3]) of the same molecule?
Answer: did not show any significant improvement of cone survival; also recorded: no significant difference in cone survival

Question: Which results are given for CN(N=O)C(=O)N[C@H]1C(O)O[C@H](CO)[C@@H](O)[C@@H]1O (mixture of isomers) [streptozotocin]?
Answer: cone survival after 4 weeks of treatment (cones [3]): decrease in cone survival; cone survival after 7 weeks of treatment (cones [3]): no significant difference in cone survival

B1: proinsulin (protein, UniProt P01326 25-110, looked up)
pro-form: FVKQHLCGSHLVEALYLVCGERGFFYTPMSRREVEDPQVAQLELGGGPGAGDLQTLALEVAQQKRGIVDQCCTSICSLYQLENYCN
modifications: pro-form
Question: With B1 as the molecule, how does the photoreceptor death (photoreceptor; constitutive expression, rd10 mouse model of RP) read?
Answer: delays photoreceptor death, both of rods and cones

Question: And the hyperglycemia (photoreceptor; mice treated with proinsulin)?
Answer: did not develop hyperglycemia

— patent US9610363B2, “Methods for inhibiting starvation of a cell” (PRESIDENT AND FELLOWS OF HARVARD COLLEGE, priority 2009, dated 2017)
